The test system of assay [1] is OAB Wet patients (subjects with a diagnosis of overactive bladder). The experiment in a line: Clinical Study 1: multicentre trial, diary record of urgency episodes and severity of urgency (VAS). Type of assay: in vivo, human. The following applies: for No of episodes of urgency/day, Median change from baseline / No of episodes of urgency/day, Median % Change from baseline: 12 weeks of treatment; for No of episodes of urgency/day, Median change from baseline: placebo −1.2; for No of episodes of urgency/day, Median % Change from baseline: placebo −15.7; for No of episodes of urgency/day, Median difference from placebo / Severity of urgency/day, Median difference from placebo: corrected for placebo; for No of episodes of urgency/day, Median difference from placebo / Severity of urgency/day, Median change from baseline / Severity of urgency/day, Median difference from placebo: 12 weeks; for Severity of urgency/day, Median change from baseline: visual analogue scale (mild to severe), placebo −3.9; for Severity of urgency/day, Median difference from placebo: visual analogue scale. The method, then:
Two novel methods for the assessment of urgency were used. The first was for use in a large scale clinical trial, and the second was for use in clinical laboratory studies. In both of these studies, darifenacin was administered as its hydrobromide salt. It was presented in slow release matrix tablets of the type described in U.S. Pat. No. 6,106,864, particularly Example 3. Tablets were administered once daily (o.d.). In this study, OAB Wet patients recorded each episode of urgency per day and the overall severity of urgency for each day in a diary. The severity of urgency was recorded by the use of a visual analogue scale (VAS) where the anchor points were mild and severe. Darifenacin (as hydrobromide salt; 7.5 mg, 15 mg and 30 mg of the active moiety, o.d.) and placebo were evaluated in subjects with a diagnosis of overactive bladder in a multicentre trial and symptoms of urgency were assessed using the VAS at baseline and at the end of the study (12 weeks of treatment). 108 patients (14 male, 94 female) received 7.5 mg; 107 patients (15 male, 92 female) received 15 mg; 114 patients (16 male, 98 female) received 30 mg; and 108 patients (18 male, 90 female) received placebo.

For assay [2], the system named is subjects with symptoms of urgency (mixture of OAB Wet and OAB Dry sufferers). The assay can be described thus: Clinical Study 2: warning time between onset of urgency and need to micturate, measured with a modified stop-watch. Type of assay: in vivo, human. The method, then: Two novel methods for the assessment of urgency were used. The first was for use in a large scale clinical trial, and the second was for use in clinical laboratory studies. In both of these studies, darifenacin was administered as its hydrobromide salt. It was presented in slow release matrix tablets of the type described in U.S. Pat. No. 6,106,864, particularly Example 3. Tablets were administered once daily (o.d.). This study used a novel method for measuring the time between the first onset of the urgency and the need to micturate, which is known as the ‘warning time’. A modified stop-watch was used which required the subject to press a button at the onset of urge and a second button when they felt they needed to micturate. Darifenacin (as the hydrobromide salt; 30 mg o.d.) and placebo were evaluated in subjects with symptoms of urgency. The subjects were a mixture of OAB Wet and OAB Dry sufferers. The ‘warning time’ was assessed at baseline and following 2 weeks of treatment using the modified stop watch. 36 patients (29 female, 7 male) received darifenacin; and 36 patients (22 female, 14 male) received placebo.

Setting [3] is: 15 mg o.d., baseline 8.6, P < 0.05.
[4] abbreviates: 30 mg o.d., baseline 8.4, P < 0.001.
[5] abbreviates: 7.5-30 mg, effect significantly greater than that produced by placebo.
The mark [6] stands for this setting: 15 mg o.d., baseline 56.2, P < 0.05.
[7] abbreviates: 30 mg o.d., baseline 53.5, P < 0.05.
The mark [8] stands for this setting: 30 mg o.d., 2 weeks of treatment.

Marks after values point to notes of the source that are not given here.

On to `NC(=O)C(c1ccccc1)(c1ccccc1)[C@@H]1CCN(CCc2ccc3c(c2)CCO3)C1` [Darifenacin, (S)-2-(1-[2-(2,3-dihydrobenzofuran-5-yl)ethyl]-3-pyrrolidinyl)-2,2-diphenyl-acetamide], for which the “No of episodes of urgency/day, Median change from baseline” value in assay [1] (7.5 mg o.d., baseline 8.5) is reported as −1.8 episodes of urgency/day; in assay [1] (setting [3]), −2.3* episodes of urgency/day; in assay [1] (setting [4]), −3*** episodes of urgency/day. In addition, the entries for the “No of episodes of urgency/day, Median % Change from baseline” value in assay [1] (7.5 mg o.d.), in assay [1] (15 mg o.d.) and in assay [1] (30 mg o.d.) were −29.2%, −26.9% and −33.1%, respectively. Besides, the “Effect on number of episodes of urgency” value in assay [1] (setting [5]) is listed as “dose-related reduction”. The “Effect on overall severity of urgency” value in assay [1] (setting [5]) is recorded as “dose-related reduction”. For the same compound, in assay [1] (conclusion drawn from both clinical studies), the “Effect on the symptom of urgency in subjects with overactive bladder (conclusion)” value is “clinically significant attenuation”. For the same compound, the “No of episodes of urgency/day, Median difference from placebo” value in assay [1] (7.5 mg o.d., baseline 8.5) is reported as −0.5 episodes of urgency/day; in assay [1] (setting [3]) it was −1.1* episodes of urgency/day; in assay [1] (setting [4]) it was −1.4*** episodes of urgency/day. Also, the “Severity of urgency/day, Median change from baseline” value is −7 in assay [1] (7.5 mg o.d., baseline 53.2); −7* in assay [1] (setting [6]); −9.4* in assay [1] (setting [7]). Moreover, the “Severity of urgency/day, Median difference from placebo” value was −2.5 in assay [1] (7.5 mg o.d., baseline 53.2); −3.8* in assay [1] (setting [6]); −5.5* in assay [1] (setting [7]). In assay [2] (setting [8]), the “Effect on warning time compared with placebo” value is reported as “significant increase”. Further, the “Warning time, Median difference from placebo” value in assay [2] (setting [8]) stood at 4.3 min. In addition, in assay [2] (30 mg o.d., 2 weeks of treatment, baseline median 4.7, placebo week 2 4.1, P < 0.01), the “Warning Time, Week 2 (Median)” value is 8.4** Min. For the same compound, the “Response of OAB Wet and OAB Dry subjects” value in assay [2] (both OAB Wet and OAB Dry subjects) is on record as “responded to treatment”.

The record behind these values is patent US8748476B2, “Darifenacin for use in the treatment of urgency induced by overactive bladder” (Warner Chilcott Company, LLC, priority 2002, dated 2014).
